Where two headings read alike, the source gives them in different places.
Assays:
Type in all cases: cell-based
A549/ATCC [1] = test: NCI60 five-dose screen; details: Homo sapiens
T-47D = test: NCI60 one-dose screen; details: Homo sapiens, T47D, read-out: Growth percent
U251 = test: NCI60 five-dose screen; details: Homo sapiens
CAKI-1 = test: NCI60 five-dose screen; details: Homo sapiens
NCI/ADR-RES = test: NCI60 five-dose screen; details: Homo sapiens
A498 = test: NCI60 one-dose screen; details: Homo sapiens
NCI-H226 = test: NCI60 five-dose screen; details: Homo sapiens
COLO 205 = test: NCI60 five-dose screen; details: Homo sapiens
PC-3 = test: NCI60 one-dose screen; details: Homo sapiens
SK-OV-3 = test: NCI60 one-dose screen; details: Homo sapiens
SNB-75 [2] = test: NCI60 one-dose screen; details: Homo sapiens
SN12C = test: NCI60 five-dose screen; details: Homo sapiens
CCRF-CEM = test: NCI60 one-dose screen; details: Homo sapiens, read-out: Growth percent
UACC-62 = test: NCI60 one-dose screen; details: Homo sapiens
NCI-H322M = test: NCI60 five-dose screen; details: Homo sapiens
HS 578T [3] = test: NCI60 five-dose screen; details: Homo sapiens
SNB-75 [4] = test: NCI60 five-dose screen; details: Homo sapiens
K-562 [5] = test: NCI60 five-dose screen; details: Homo sapiens, K562
UO-31 = test: NCI60 five-dose screen; details: Homo sapiens
SR = test: NCI60 five-dose screen; details: Homo sapiens
OVCAR-5 = test: NCI60 five-dose screen; details: Homo sapiens
K-562 [6] = test: NCI60 one-dose screen; details: Homo sapiens
SK-MEL-2 = test: NCI60 five-dose screen; details: Homo sapiens
A549/ATCC [7] = test: NCI60 one-dose screen; details: Homo sapiens
MDA-MB-468 = test: NCI60 one-dose screen; details: Homo sapiens
SF-268 = test: NCI60 five-dose screen; details: Homo sapiens
HCC-2998 = test: NCI60 five-dose screen; details: Homo sapiens
TK-10 = test: NCI60 one-dose screen; details: Homo sapiens
HS 578T [8] = test: NCI60 one-dose screen; details: Homo sapiens, read-out: Growth percent
HOP-92 = test: NCI60 one-dose screen; details: Homo sapiens
MOLT-4 = test: NCI60 one-dose screen; details: Homo sapiens
M14 = test: NCI60 five-dose screen; details: Homo sapiens
BT-549 = test: NCI60 five-dose screen; details: Homo sapiens
MDA-MB-231/ATCC = test: NCI60 one-dose screen; details: Homo sapiens
UACC-257 = test: NCI60 one-dose screen; details: Homo sapiens
MDA-MB231ATCC = test: NCI60 five-dose screen; details: Homo sapiens, MDA-MB-231
786-0 = test: NCI60 one-dose screen; details: Homo sapiens
[9] = tested on: 60 human tumor cell lines (NCI60); test: NCI60 five-dose screen, overall mean; details: 60 cell, mean over all 60 cell lines, read-out: Mean GI50

In the case of `CC[C@]12C=CCN3CC[C@@]4(c5ccc(OC)cc5N(C)[C@H]4[C@@](O)(C(=O)OC)[C@@H]1OC(=O)CCC[P+](c1ccccc1)(c1ccccc1)c1ccccc1OC)[C@@H]32` [9f], the GI50 (A549/ATCC [1]; A549) was 945 nM, the activity at 10 µM (T-47D) was -25% and the GI50 (U251; U-251) was 248 nM. It also gave a GI50 (CAKI-1; CAKI-1) of 1900 nM, a GI50 (NCI/ADR-RES) of 26100 nM and an activity at 10 µM (A498; A498, read-out: Growth percent) of -10.4%. It also gave a GI50 (NCI-H226; NCI-H226) of 1210 nM, a GI50 (COLO 205; COLO 205) of 179 nM and an activity at 10 µM (PC-3; PC-3, read-out: Growth percent) of 4.74%. The activity at 10 µM (SK-OV-3; SK-OV-3, read-out: Growth percent) was -33.4%, the activity at 10 µM (SNB-75 [2]; SNB-75, read-out: Growth percent) was -79.5% and the GI50 (SN12C) was 325 nM. The activity at 10 µM (CCRF-CEM) was 0.92%, the activity at 10 µM (UACC-62; UACC-62, read-out: Growth percent) was -73.2% and the GI50 (NCI-H322M) was 2230 nM. For the same compound, the GI50 (HS 578T [3]; Hs-578T) was 473 nM, the GI50 (SNB-75 [4]; SNB-75) was 197 nM and the GI50 (K-562 [5]) was 125 nM. The GI50 (UO-31; UO-31) was 11000 nM, the GI50 (SR) was 221 nM and the GI50 (OVCAR-5; OVCAR-5) was 735 nM. The activity at 10 µM (K-562 [6]; K562, read-out: Growth percent) was -43.4%, the GI50 (SK-MEL-2; SK-MEL-2) was 322 nM and the activity at 10 µM (A549/ATCC [7]; A549, read-out: Growth percent) was 20.1%. The activity at 10 µM (MDA-MB-468; MDA-MB-468, read-out: Growth percent) was -84.6%, the GI50 (SF-268; SF-268) was 372 nM and the GI50 (HCC-2998; HCC 2998) was 325 nM. For the same compound, the activity at 10 µM (TK-10; TK-10, read-out: Growth percent) was -88.5%, the activity at 10 µM (HS 578T [8]; Hs-578T) was -47.4% and the activity at 10 µM (HOP-92; HOP-92, read-out: Growth percent) was -58.4%. It also gave an activity at 10 µM (MOLT-4; MOLT-4, read-out: Growth percent) of 21.2%, a GI50 (M14; M14) of 1060 nM and a GI50 (BT-549; BT-549) of 262 nM. For the same compound, the activity at 10 µM (MDA-MB-231/ATCC; MDA-MB-231, read-out: Growth percent) was -94.5%, the activity at 10 µM (UACC-257; UACC-257, read-out: Growth percent) was -73% and the GI50 (MDA-MB231ATCC) was 397 nM. It also gave an activity at 10 µM (786-0; 786-0, read-out: Growth percent) of -74.1%.
`CC[C@]12C=CCN3CC[C@@]4(c5ccc(OC)cc5N(C)[C@H]4[C@@](O)(C(=O)OC)[C@@H]1OC(=O)CCC[P+](c1ccccc1)(c1ccccc1)c1ccccc1)[C@@H]32` [compound 3, reference compound] gave a GI50 (A549/ATCC [1]; A549/ATCC, Non-small Cell Lung Cancer, five-dose, read-out: GI50) of 1350 nM, an activity at 10 µM (T-47D; T-47D, 10 μM, one-dose) of 1.08% and a GI50 (U251; U-251, U251, CNS Cancer, five-dose, read-out: GI50) of 371 nM. It also gave a GI50 (CAKI-1; CAKI-1, Renal Cancer, five-dose, read-out: GI50) of 5570 nM, a GI50 (NCI/ADR-RES; Ovarian Cancer, five-dose, read-out: GI50) greater than 50000 nM and an activity at 10 µM (A498; A498, 10 μM, one-dose, read-out: Growth percent) of 124%. The GI50 (NCI-H226; NCI-H226, Non-small Cell Lung Cancer, five-dose, read-out: GI50) was 2040 nM, the GI50 (COLO 205; COLO 205, COLO 205, Colon Cancer, five-dose, read-out: GI50) was 161 nM and the activity at 10 µM (PC-3; PC-3, 10 μM, one-dose, read-out: Growth percent) was 2.13%. The activity at 10 µM (SK-OV-3; SK-OV-3, 10 μM, one-dose, read-out: Growth percent) was -21%, the activity at 10 µM (SNB-75 [2]; SNB-75, 10 μM, one-dose, read-out: Growth percent) was -4.39% and the GI50 (SN12C; Renal Cancer, five-dose, read-out: GI50) was 590 nM. It also gave an activity at 10 µM (CCRF-CEM; 10 μM, one-dose) of 11.2%, a GI50 [9] of 1980 nM and an activity at 10 µM (UACC-62; UACC-62, 10 μM, one-dose, read-out: Growth percent) of -59.3%. The GI50 (NCI-H322M; Non-small Cell Lung Cancer, five-dose, read-out: GI50) was 2330 nM, the GI50 (HS 578T [3]; HS 578T, Breast Cancer, five-dose, read-out: GI50) was 1260 nM and the GI50 (SNB-75 [4]; SNB-75, CNS Cancer, five-dose, read-out: GI50) was 750 nM. The GI50 (K-562 [5]; K-562, Leukemia, five-dose, read-out: GI50) was 360 nM, the GI50 (UO-31; UO-31, Renal Cancer, five-dose, read-out: GI50) was 10800 nM and the GI50 (SR; Leukemia, five-dose, read-out: GI50) was 346 nM. For the same compound, the GI50 (OVCAR-5; OVCAR-5, Ovarian Cancer, five-dose, read-out: GI50) was 1200 nM, the activity at 10 µM (K-562 [6]; K562, K-562, 10 μM, one-dose, read-out: Growth percent) was 10.4% and the GI50 (SK-MEL-2; SK-MEL-2, SK-MEL-2, Melanoma, five-dose, read-out: GI50) was 322 nM. It also gave an activity at 10 µM (A549/ATCC [7]; A549/ATCC, 10 μM, one-dose, read-out: Growth percent) of 13.4%, an activity at 10 µM (MDA-MB-468; MDA-MB-468, 10 μM, one-dose, read-out: Growth percent) of -75.6% and a GI50 (SF-268; SF-268, CNS Cancer, five-dose, read-out: GI50) of 975 nM. It also gave a GI50 (HCC-2998; HCC-2998, Colon Cancer, five-dose, read-out: GI50) of 436 nM, an activity at 10 µM (TK-10; TK-10, 10 μM, one-dose, read-out: Growth percent) of 22.3% and an activity at 10 µM (HS 578T [8]; HS 578T, 10 μM, one-dose) of 25.5%. For the same compound, the activity at 10 µM (HOP-92; HOP-92, 10 μM, one-dose, read-out: Growth percent) was -40%, the activity at 10 µM (MOLT-4; MOLT-4, 10 μM, one-dose, read-out: Growth percent) was 5.41% and the GI50 (M14; M14, Melanoma, five-dose, read-out: GI50) was 790 nM. For the same compound, the GI50 (BT-549; BT-549, Breast Cancer, five-dose, read-out: GI50) was 380 nM, the activity at 10 µM (MDA-MB-231/ATCC; MDA-MB-231/ATCC, 10 μM, one-dose, read-out: Growth percent) was 1.29% and the activity at 10 µM (UACC-257; UACC-257, 10 μM, one-dose, read-out: Growth percent) was -27.3%. The GI50 (MDA-MB231ATCC; MDA-MB231ATCC, Breast Cancer, five-dose, read-out: GI50) was 406 nM and the activity at 10 µM (786-0; 786-0, 10 μM, one-dose, read-out: Growth percent) was 20.6%.
